# pIC50: −log10 of the molar value.
# Target: Human immunodeficiency virus type 1 protease (Human immunodeficiency virus 1, UniProt Q72874)
# Experiment: ChEBML_159443
# Text: In vitro inhibitory activity against HIV-1 protease(PR).
row,pIC50,Compound
1,6.16,O=c1oc(-c2ccc(O)cc2)cc(O)c1SCc1ccccc1 [3-Benzylsulfanyl-4-hydroxy-6-(4-hydroxy-phenyl)-pyran-2-one]
2,6.16,O=c1oc(-c2cccc(Cl)c2)cc(O)c1SCc1ccccc1 [3-Benzylsulfanyl-6-(3-chloro-phenyl)-4-hydroxy-pyran-2-one]

# — BindingDB's records for doi:10.1016/0960-894X(96)00185-0 (1996)
